Test results published in patent US20160362463A1, “Pharmaceutical composition inhibiting interaction between MZF-1 and Elk-1” (China Medical University, priority 2015, published 2016).
Read-outs that look alike come from different tables or passages of the source. No end group written: not given here.

What was measured:
MZF-1/Elk-1 interaction = target: T1, MZF-1/Elk-1 interaction (Homo sapiens, UniProt P19419+P28698); assay: Co-immunoprecipitation of MZF-1 and Elk-1 in HEK-293 lysates with added TAT-fused peptides; assay type: binding; details: 50, 100 and 150 nmol peptide added to lysates, overnight at 4° C.
T1 construct: FLAG-Elk-1; 1-428; MZF-1-c-Myc; 1-485; His (from the myc-His vector) (C); expressed in transfected cells; host or cells: HEK-293 (lysates)
T1 sequence (P28698 1-485 isoform P28698-2, one chain of several): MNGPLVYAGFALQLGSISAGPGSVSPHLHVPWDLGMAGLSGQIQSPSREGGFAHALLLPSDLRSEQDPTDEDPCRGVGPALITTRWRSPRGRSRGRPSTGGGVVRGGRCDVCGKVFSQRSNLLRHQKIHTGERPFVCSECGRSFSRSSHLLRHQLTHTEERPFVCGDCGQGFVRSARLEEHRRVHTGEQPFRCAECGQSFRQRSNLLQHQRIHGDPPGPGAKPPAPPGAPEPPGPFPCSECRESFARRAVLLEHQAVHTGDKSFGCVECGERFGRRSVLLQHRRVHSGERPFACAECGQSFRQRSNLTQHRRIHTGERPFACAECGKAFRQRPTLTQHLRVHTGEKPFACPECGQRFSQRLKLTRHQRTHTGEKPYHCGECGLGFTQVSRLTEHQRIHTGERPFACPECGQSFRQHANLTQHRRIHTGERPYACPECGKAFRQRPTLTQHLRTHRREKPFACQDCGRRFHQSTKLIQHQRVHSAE
Experimental: HEK-293 cells were transfected with empty vector, FLAG-Elk-1, MZF-1-c-Myc, FLAG-MZF-1 or Elk-1-cMyc construct. ‘+’ indicates the presence of each item and ‘-’ indicates their absence. Different concentrations (50, 100 and 150 nmol) of TAT-fused peptides (normal or mutant) were then added to the lysates and incubated overnight at 4° C. and then subjected to immunoprecipitation with anti-c-Myc antibody, followed by immunoblotting against FLAG and c-Myc. Lysates of HEK-293 cells transfected with FLAG-Elk-1 or FLAG-MZF-1 vector indicated as a “Input”.

[1] = tested on: Hs578T and MDA-MB-231 cells; assay: Immunoblotting of protein levels in TAT-fused peptide-treated cells; assay type: cell-based, human; details: three days post-treatment
From the text: (§1) The TAT-fused peptides were designed such that the TAT moiety corresponds to amino acid residues 48-57 of the HIV TAT protein, the MZF-160-72 moiety corresponds to residue 60-72 of the human MZF-1 protein and the Elk-1145-157 moiety corresponds to residues 145-157 of the human Elk-1 protein. The TAT and MZF-1/Elk-1 moieties were linked by three glycine linker residues. The TAT-fused peptide MZF-1 normal fragment (60-72; […] as SEQ ID NO: 57), MZF-1 mutant fragment (60-72; […] as SEQ ID NO: 58), Elk-1 normal fragment (145-157; […] as SEQ ID NO: 59), and Elk-1 mutant fragment (145-157; […] as SEQ ID NO: 60) were synthesized by MDBio, Inc. (Taipei, Taiwan). For transduction of the TAT fusion proteins cells were cultured to 50-60% confluence. The culture medium was removed and replaced with fresh, serum-free medium, followed by the addition of the TAT fusion proteins at the indicated concentrations. Three days post-treatment the cells were used for migration assays and western blotting.

[2] = tested on: Hs578T and MDA-MB-231 cells; assay: Cell migration assay after treatment with TAT-fused peptides; assay type: cell-based, human; details: 3 days after addition of the peptides
Experimental: The cell migration assay was performed 3 days after the addition of the peptides to the cells.
as §1
The migration assay was performed using a 48-well Boyden chamber (Neuro Probe) plated with 8-μm pore size polycarbonate membrane filters (Neuro Probe). […] The migratory phenotypes were determined by counting the cells that migrated to the lower side of the filter through microscopy at 200× magnification.

[3] = target: T2, Elk-1 and MZF-1 DNA-binding activity at the PKCα promoter (Homo sapiens, UniProt P19419+P28698); assay: EMSA of Elk-1 and MZF-1 binding to PKCα promoter probe, nuclear extracts of transfected HEK-293 cells; assay type: biochemical; details: biotin-labeled WT PKCα promoter probe
T2 construct: Primers and restriction enzyme (R.E.) sites for the full-length and truncated MZF-1, Elk-1; expressed in transfected cells; host or cells: HEK-293 (nuclear extracts)
T2 sequence (P28698 1-485 isoform P28698-2, one chain of several): as above
Experimental: The biotin-labeled WT oligonucleotide probes were incubated with the indicated concentration of nuclear extracts of the different-treated HEK-293 cells, which were transfected with empty vector, Elk-1, MZF-1, MZF-160-72 or mutant MZF-160-72 and the reactions were resolved on a nondenaturing polyacrylamide gel. DNA-protein complexes are indicated by the black arrow-head.
The biotin-labeled wild-type oligonucleotide probes were incubated with the indicated concentration of nuclear extracts of the different-treated HEK-293 cells, which were transfected with empty vector, Elk-1, MZF-1, Elk-1145-157 or mutant Elk-1145-157.
EMSA analysis was performed using a LightShift™ chemiluminescent EMSA kit (Pierce). 15 μg of nuclear extract was used for each EMSA analysis. […] The membrane was immediately cross-linked at 120 mJ/cm^2 using an UV transilluminator and then analyzed via chemiluminescence according to the manufacturer's instructions.

Elk-1 = target: T3, Elk-1 (Homo sapiens, UniProt P19419); assay: Co-immunoprecipitation of MZF-1-c-Myc fragments with FLAG-Elk-1 in transfected HEK-293 cells; assay type: binding; details: FLAG-Elk-1 plus c-Myc fragment
T3 construct: FLAG-Elk-1; 1-428; expressed in transfected cells; host or cells: HEK-293
T3 sequence (P19419 1-428): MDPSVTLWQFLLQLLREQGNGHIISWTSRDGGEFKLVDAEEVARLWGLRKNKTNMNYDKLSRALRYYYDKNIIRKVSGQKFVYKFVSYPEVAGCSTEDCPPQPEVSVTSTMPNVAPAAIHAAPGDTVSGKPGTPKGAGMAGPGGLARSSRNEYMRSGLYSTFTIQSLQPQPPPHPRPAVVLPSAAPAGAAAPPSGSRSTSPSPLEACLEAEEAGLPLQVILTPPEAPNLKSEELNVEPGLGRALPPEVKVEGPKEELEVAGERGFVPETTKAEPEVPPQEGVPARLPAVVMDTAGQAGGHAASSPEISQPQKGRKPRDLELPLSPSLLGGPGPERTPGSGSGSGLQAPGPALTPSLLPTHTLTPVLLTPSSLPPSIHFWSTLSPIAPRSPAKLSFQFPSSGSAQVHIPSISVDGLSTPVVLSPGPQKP
Experimental: Red bands indicate the fragments that bound Elk-1 as present in the co-immunoprecipitation assay (lower panel). HEK-293 cells were transfected with 5 μg FLAG-Elk-1 and either empty vector or the indicated MZF-1-c-Myc fragment. The c-Myc-fused peptides were Immunoprecipitation by c-Myc monoclonal antibody and then Immunoblotting with the anti-FLAG antibodies. Lysates of HEK-293 cells transfected with the FLAG-Elk-1 only were also Immunoblotting as a control (Input).
MZF-1 contains an acidic domain (amino acids 60-72) with six aspartates or glutamates upstream of the zinc finger regions. To identify the specific residues through which MZF-1 interacts with Elk-1 we designed various protein fragments containing only the relevant interacting domains for co-immunoprecipitation assays (FIG. 14, top). The full-length MZF-1 and MZF-11-72, MZF-11-141, and MZF-160-72 fragments (all contain the acidic domain) all bound Elk-1 (FIG. 14, lower panel) but not MZF-11-60 or MZF-173-485.

MDA-MB-231 cells = assay: MTT cell viability with anti-cancer drugs, MDA-MB-231 cells; assay type: cell-based, human; details: read-out: 50% inhibitory concentration (IC50), cell viability
Experimental: The level of multidrug resistance protein permeability glycoprotein (P-gp) was determined by upper panel. Cell growth was determined using the MTT assay 2 days after treatment (lower panel).
Cell proliferation was analyzed using the yellow tetrazolium (MTT) assay. Cells were seeded in 24-well plates at 1×10^4 cells/well and cultured in DMEM containing 10% FCS at 37° C. overnight. Cells were treated with or without various plasmids and incubated for 24 or 48 h. After incubation, the medium was replaced with fresh medium, and the cells were incubated with 1 mg/ml MTT for 3 h before being dissolved in 1 ml of DMSO for 30 min. The optical density at 570 nm was measured using a spectrophotometer.
To determine if MZF-160-72 peptide-mediated decrease in P-gp expression sensitizes breast cancer cells to chemotherapeutic agents, MZF-160-72-expressing MDA-MB-231 stable cells were treated with acriflavine and cisplatin (commonly used to treat breast cancer-insert) and their cell viability measured.

Hs578T cells = assay: MTT cell viability with anti-cancer drugs, Hs578T cells; assay type: cell-based, human
[4] = target: T4, FLAG-MZF-1 (amino acids 1-485) (human, UniProt P28698-2 1-485); assay: co-immunoprecipitation, HEK-293 cells
T4 construct: range 1-485; Full-length MZF-1 expressed in HEK-293 cells; not shown: FLAG tag

[5] = target: T5, FLAG-Elk-1 (amino acids 1-428) (human, UniProt P19419 1-428); assay: co-immunoprecipitation (anti-c-Myc IP, anti-FLAG blot), HEK-293 cells
T5 construct: range 1-428; Full-length Elk-1 expressed in HEK-293 cells; not shown: FLAG tag
T5 sequence (looked up): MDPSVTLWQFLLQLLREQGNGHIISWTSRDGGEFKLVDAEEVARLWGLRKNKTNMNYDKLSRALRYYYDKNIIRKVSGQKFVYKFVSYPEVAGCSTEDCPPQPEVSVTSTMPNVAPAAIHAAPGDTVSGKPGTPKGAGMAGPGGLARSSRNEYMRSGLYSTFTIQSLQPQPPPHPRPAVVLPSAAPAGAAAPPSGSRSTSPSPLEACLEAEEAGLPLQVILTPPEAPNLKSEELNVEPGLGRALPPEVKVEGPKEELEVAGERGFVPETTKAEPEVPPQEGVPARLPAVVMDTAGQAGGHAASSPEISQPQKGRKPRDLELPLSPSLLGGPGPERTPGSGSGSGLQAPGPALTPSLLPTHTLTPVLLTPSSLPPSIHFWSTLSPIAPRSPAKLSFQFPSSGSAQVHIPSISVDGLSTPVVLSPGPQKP

[6] = MDA-MB-231 cells before MZF-160-72 expression (parental)
[7] = MZF-160-72-expressing MDA-MB-231 stable cells
[8] = Hs578T cells before MZF-160-72 expression (parental)
[9] = MZF-160-72-expressing Hs578T cells

With “YGRKKRRQRRRGGGDEDTPDQESRLDS (listed as Homo sapiens) [TAT-MZF-160-72, TAT-fused peptide MZF-1 normal fragment (60-72), three glycine linker residues]” the “binding of MZF-1 to Elk-1 and vice versa (co-immunoprecipitation)” value (MZF-1/Elk-1 interaction) was “reduced the binding of MZF-1 to Elk-1 and vice versa in a dose-dependent manner”, the “levels of EMT-related (PKCα, Slug and Vimentin) proteins” value [1] was “noticeably increased” and the “levels of MET-related (E-cadherin) proteins” value [1] was “decreased”. For the same molecule, the cell migration [2] was “reduced cell migration”.

“Elk-1145-157: Heparin-binding domain fragment, amino acids 145-157 of human Elk-1; expressed as c-Myc-fused fragment (LARSSRNEYMRSG; also: c-Myc tag fusion; listed as Homo sapiens)” was tested, and the “Elk-1 and MZF-1 DNA-binding activity (EMSA)” value [3] was “decreased Elk-1 and MZF-1 DNA-binding activity in a dose-dependent manner”.

With “mutant MZF-160-72: MZF-1 60-72 fragment with aspartates D61, D67, D70 and D72 changed to uncharged alanine” the “binding to Elk-1 (co-immunoprecipitation)” value (Elk-1) was “substantially decreased” and the “Elk-1 and MZF-1 DNA-binding activity (EMSA)” value [3] was “did not affect their binding activity”.

“YGRKKRRQRRRGGGLARSSRNEYMRSG (listed as Homo sapiens) [TAT-Elk-1145-157, TAT-fused peptide Elk-1 normal fragment (145-157), three glycine linker residues]” was tested, and the “binding of MZF-1 to Elk-1 and vice versa (co-immunoprecipitation)” value (MZF-1/Elk-1 interaction) was “reduced the binding of MZF-1 to Elk-1 and vice versa in a dose-dependent manner”, the “levels of EMT-related (PKCα, Slug and Vimentin) proteins” value [1] was “noticeably increased” and the “levels of MET-related (E-cadherin) proteins” value [1] was “decreased”. The cell migration [2] was “reduced cell migration”.

N.N.[Cl][Pt][Cl] [cisplatin] showed an IC50 (MDA-MB-231 cells; [6]) of 23.7 µM, an IC50 (MDA-MB-231 cells; [7]) of 16.2 µM and an IC50 (Hs578T cells; [8]) of 28 µM. It also gave an IC50 (Hs578T cells; [9]) of 21.1 µM.

Molecule acriflavine has an IC50 (MDA-MB-231 cells; [6]) of 2.43 µM, an IC50 (MDA-MB-231 cells; [7]) of 1.49 µM and an IC50 (Hs578T cells; [8]) of 2.56 µM. The IC50 (Hs578T cells; [9]) was 1.33 µM.

B1: Elk-1-c-Myc fragment, amino acids 145-157 (Mutant) (peptide, UniProt P19419 145-157, looked up)
chain: LAASSANEYMASG
notes: not shown: c-Myc(-His) tag from the pcDNA3.1/myc-His vector
B1: no binding [4].

B2: MZF-1-c-Myc fragment, amino acids 1-60 (other, human, UniProt P28698-2 1-60, looked up)
chain: MNGPLVYAGFALQLGSISAGPGSVSPHLHVPWDLGMAGLSGQIQSPSREGGFAHALLLPS
notes: range 1-60; Expressed in HEK-293 cells; also called MZF-11-60; not shown: c-Myc(-His) tag from the pcDNA3.1/myc-His vector
B2: no binding [5].
